Test results published in publication PMC6792350 (Environmental Health Perspectives, 2019).

Experiments:
[1] = Noncompartmental toxicokinetic analysis of plasma after IV dosing in piglets
Procedure: Table 1 summarizes the protocol of the experiments and the plasma and urine datasets further considered for TK analyses. A first experiment (Exp. 1) was performed in 8 male piglets age 42 d ( 20.8±1.6kg BW) to investigate oral BPA TK. […] BPA data obtained after IV BPA administrations had already been used to evaluate human BPA clearance using an allometric approach ([Collet et al. 2015]).
For the IV administrations, BPA powder was dissolved in ethanol–propylene glycol (1:49, vol:vol) at 50mg/mL (Exp.1 and 2) and in ethanol–saline (1:2, vol:vol) at 23mg/mL (Exp. 5).
During the first 24 h of sampling, the piglets were housed individually in stainless steel cages.
(§1) The plasma analytes concentration–time data from individual piglets were used to derive the maximum concentration (Cmax), and the time to maximum concentration (Tmax). The area under the plasma concentration–time curves from dosing time to the time of the last measurable concentration ( AUC0–tlast ) were calculated using the linear trapezoidal rule (Equation 1). (1) AUC0–tlast=∑0tlast(Ci−1+Ci/2)×(ti−ti−1) where Ci is the concentration obtained at the time i ( ti ).
(§2) The area under the plasma concentration time curve from t=0 to infinity ( AUC0–inf ) was obtained using Equation 2. (2) AUC0–inf=AUC0–tlast+AUCtlast–inf where AUCtlast–inf is the area extrapolated from the last observation to infinity, calculated according to Equation 3: (3) AUCtlast–inf=Clast/λz where Clast is the last observed quantifiable plasma concentration, and λz is the slope of the terminal phase, as estimated by linear regression using the best fit option of Phoenix®.

in vivo = test: in vivo
Procedure: Table 1 summarizes the protocol of the experiments and the plasma and urine datasets further considered for TK analyses.
For administrations by gavage, BPA powder was dissolved in ethanol–corn oil (1:9, vol:vol) at 100mg/mL (Exp. 1).
as §1, §2

[2] = Population semiphysiologically based 9-compartment TK model (NLME) of plasma and urine data in piglets; conditions: for bioavailability: po; for k el: plasma and urine, other: intravenous and oral (data sets combined), tvK30, elimination rate constant from plasma to urine
Procedure: The NLME model was therefore developed by combining the plasma and urinary data sets from the five TK experiments carried out in piglets, except for the urinary BPA concentration obtained after oral administration of BPA.
Different compartmental models and submodels were tested and compared using the likelihood ratio test (LRT). The primary parameters of the model, namely the volumes of distribution ( VBPA , VBPAG , VBPS , VBPSG ) and the first-order rate constants ( Kij ) and their associated precisions [standard error (SE)] were estimated by minimizing an objective function value (OFV) expressed as minus twice the log of the likelihood estimation ( −2LL ).
The between-subject variability (BSV) of the parameters was evaluated using the exponential model θparameter_i=θtv_parameter×exp(ηi) , where θparameter_i is the parameter estimated for the i^th individual, θtv_parameter is the typical population value of the parameter, and ηi is the deviation associated with the i^th individual from the corresponding value of the parameter at the population level. The distribution of ηi was assumed to be normal with a mean of 0 and a variance ω² . The BSV was reported as a coefficient of variation (CV) in the original scale CV(%)=100× exp (ω^2)−1 .
The residual variance was modeled using a combined additive and proportional error model Cobsij=Cpredij(1+ε1ij)+ε2ij where Cobsij and Cpredij are respectively the j^th observed and predicted concentrations for the i^th individual and ε1ij and ε2ij the multiplicative and additive residual errors.
The bootstrap tool (20 replicates) was used to evaluate the mean, median, SE, and coefficient of variation of the parameter estimates. The predictive ability of the model was checked graphically by plotting Visual Predictive Check plots to compare the observed data with the selected quantiles (here 20th, 50th and 80th percentiles) of data simulated using the model and obtained from 200–1,000 replicates from each animal based on the structure of the original data (i.e., dosing, timing and number of samples).
For the LRT test, the critical value of the χ^2 distribution considered for a given nominal risk and a given number of degrees of freedom was obtained using the Excel function CHISQ.INV.RT().
Figure 1. Schematic representation of the compartmental model. […] The link between the two central compartments was modeled with a compartment (CP2) that should be viewed as the liver. […] The fraction of absorbed BPA that is not hepatically transformed reaches the CP3 via K23 . The exchanges between CP2 and CP3 are bilateral, K32 being the rate constant between CP3 and CP2 and K23 the rate constant between CP2 and CP3. […] It was assumed that no phase-two metabolite other than BPAG (BPSG) was formed.
(12) Bioavailability=K12/K12+K110+K10×(1−K25/K25+K23) with K10 , K12 , K110 , K23; K25 as defined above.

[3] = no reference given; cited from earlier work
[4] = design: method as in EFSA CEF Panel 2015; conditions: ref EFSA CEF Panel 2015; cited from earlier work
[5] = human; cited from earlier work
[6] = Cumulative urinary excretion after IV and oral dosing in piglets
Procedure: Blood samples were collected in heparinized polypropylene tubes, immediately chilled in ice and centrifuged for 10 min at 3,000×g at 4°C, and the supernatant plasma was stored in polypropylene tubes at −20°C until assay. Total urine was filtered through a nylon mesh ( 250μm ) and collected in glass containers and chilled in ice. The volume of each urine sample and the sampling time were recorded. A urine sample was immediately chilled in ice and centrifuged for 10 min at 3,000×g at 4°C and stored at −20°C until assayed.
Analytes were quantified by Acquity UPLC-MS/MS (Waters Corporation).
All TK analyses were performed using the Phoenix® NLME (version 8.0; Pharsight Corporation). The plasma mass concentrations were converted into molar concentrations before analysis.

For `CC(C)(c1ccc(O)cc1)c1ccc(O)cc1` [BPA, bisphenol A], the “time after which plasma concentrations were below the LOQ” value ([1]; after IV BPA and BPS administration) was over 12 h, the AUC0-tlast/dose ([1]; pig, in vivo, iv) was 0.34±0.14 μmol×h/L per μmol/kg and the clearance ([1]; pig, in vivo, iv) was 56.8 mL/min/kg. The AUClast/dose (in vivo; both, pig, in vivo, po) was 0.0024±0.0027 μmol×h/L per μmol/kg BW, the “Cl_F (apparent clearance)” value (in vivo; both, pig, in vivo, po) was 21170 ± 20830 mL/min/kg and the Tmax (in vivo; both, pig, in vivo, po, Tmax) was 57 ± 33 min. For the same compound, the Tmax (in vivo; both, pig, in vivo, po, time to maximal plasma concentration) was about 60 min, the “mean fraction of total (parent plus glucuronide) in plasma that is unconjugated” value (in vivo; oral dosing, piglets) was 0.16% and the “tvK10, rate constant of unabsorbed compound from the gastrointestinal tract, Mean” value ([2]; bootstrap mean) was 0.223 h⁻¹. The “tvK12, rate constant of absorption by enterocytes passing directly into the portal blood, Mean” value ([2]; bootstrap mean) was 0.365 h⁻¹, the “tvK23, distribution rate constant liver to plasma, Mean” value ([2]; bootstrap mean) was 1.53 h⁻¹ and the “tvK32, distribution rate constant, Mean” value ([2]; bootstrap mean) was 3.72 h⁻¹. For the same compound, the “tvK34, distribution rate constant, Mean” value ([2]; bootstrap mean) was 5.90 h⁻¹, the “tvK43, distribution rate constant, Mean” value ([2]; bootstrap mean) was 3.89 h⁻¹ and the “tvK110, rate constant of compound absorbed by enterocytes locally subjected to glucuronidation, Mean” value ([2]; bootstrap mean) was 0.349 h⁻¹. For the same compound, the “tvK10, rate constant of unabsorbed compound from the gastrointestinal tract, Median” value ([2]; bootstrap median) was 0.219 h⁻¹, the “tvK12, rate constant of absorption by enterocytes passing directly into the portal blood, Median” value ([2]; bootstrap median) was 0.371 h⁻¹ and the “tvK23, distribution rate constant liver to plasma, Median” value ([2]; bootstrap median) was 1.32 h⁻¹. For the same compound, the “tvK32, distribution rate constant, Median” value ([2]; bootstrap median) was 3.31 h⁻¹, the “tvK34, distribution rate constant, Median” value ([2]; bootstrap median) was 4.14 h⁻¹ and the “tvK43, distribution rate constant, Median” value ([2]; bootstrap median) was 3.68 h⁻¹. The “tvK110, rate constant of compound absorbed by enterocytes locally subjected to glucuronidation, Median” value ([2]; bootstrap median) was 0.318 h⁻¹, the CL renal ([2]; both, pig, in vivo) was 0.0333 mL/min/kg and the “mean volume of the central compartment” value ([2]; both, pig, in vivo) was 1.0 L/kg. The “metabolic hepatic clearance as fraction of plasma clearance” value ([2]; both, pig, in vivo) was “higher than 99%”, the “renal clearance as fraction of plasma clearance estimated by noncompartmental analysis” value ([2]; both, pig, in vivo) was 0.06% and the “tvV, volume of the central compartment, Mean” value ([2]; both, pig, in vivo) was 1.03 L/kg. For the same compound, the “tvV, volume of the central compartment, Median” value ([2]; both, pig, in vivo) was 1.00 L/kg, the bioavailability ([2]; both, pig, in vivo) was 0.5% and the k el ([2]; both, pig, Mean, bootstrap mean) was 7.22e-07 s⁻¹. For the same compound, the k el ([2]; both, pig, Median, bootstrap median) was 5.56e-07 s⁻¹, the “fraction of the absorbed dose glucuronidated in the gut” value ([2]; oral, % of absorbed dose) was 44% and the “fraction of the absorbed dose reaching the liver / first-pass glucuronidated in the liver” value ([2]; oral, % of absorbed dose) was 53%. For the same compound, the “fraction of the dose reaching the liver unchanged” value ([2]; oral, % of administered dose) was 40.3%, the “fraction of the dose subjected to hepatic first-pass effect” value ([2]; oral, % of administered dose) was 39.9% and the “hepatic first-pass effect: fraction of compound reaching the liver that is glucuronidated” value ([2]; oral, % of the fraction reaching the liver) was 99%. For the same compound, the “Fraction of absorbed BPA undergoing a first-pass effect (gut and liver), Mean” value ([2]; oral, bootstrap mean) was 0.988, the “Fraction of administered compound glucuronidated by the gastro-intestinal tract, Mean” value ([2]; oral, bootstrap mean) was 0.360 and the “Fraction of administered compound reaching the liver by the portal blood flow, Mean” value ([2]; oral, bootstrap mean) was 0.405. The “fraction absorbed by the gastro-intestinal tract, Mean” value ([2]; oral, bootstrap mean) was 0.765, the “Fraction of absorbed BPA undergoing a first-pass effect (gut and liver), Median” value ([2]; oral, bootstrap median) was 0.989 and the “Fraction of administered compound glucuronidated by the gastro-intestinal tract, Median” value ([2]; oral, bootstrap median) was 0.340. For the same compound, the “Fraction of administered compound reaching the liver by the portal blood flow, Median” value ([2]; oral, bootstrap median) was 0.403, the “fraction absorbed by the gastro-intestinal tract, Median” value ([2]; oral, bootstrap median) was 0.766 and the CL renal ([2]; pig, in vivo) was 0.0333 mL/min/kg. The “renal clearance, Median” value ([2]; pig, in vivo) was 0.0333 mL/min/kg, the bioavailability ([2]; pig, in vivo) was 0.5% and the LogP [3] was 3.3. The “tolerable daily intake (TDI), fixed temporarily” value [4] was 4 μg/kg BW per day, the intestinal intrinsic clearance [5] was 7.22 mL/min/kg and the liver intrinsic clearance [5] was 61.2 mL/min/kg. The “part of the dose eliminated in urine” value ([6]; 3 h after dosing) was “About half” and the “unconjugated compound in urine, fraction of IV dose” value ([6]; IV BPA and BPS doses) was 0.044±0.028%.
